Source: patent US10377753B2, “Substituted 4-azaindoles and their use as GluN2B receptor modulators” (Janssen Pharmaceutica NV, priority 2015, dated 2019)
pIC50: −log10 of the molar value. Structures can show the parent of a compound that is named as a salt.

Molecular target: cloned human NR1/NR2B ion channels (Homo sapiens (Human), UniProt Q05586+Q13224)
Assay: HNR2BC: effects of test articles on cloned human NR1/NR2B ion channels expressed in mammalian cells (FLIPR calcium flux)
Format: cell-based
Conditions: cloned human NR1/NR2B ion channels, Table 5
Method in brief: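 In a stable Tet-On-induced cell line expressing human GluN1/GluN2B, Calcium 5-loaded cells were preincubated 5 min with compound, then stimulated 5 min with glutamate at ~EC80 plus 10 μM glycine, in pH 7.4 HEPES buffer. FLIPR calcium fluorescence was normalized to control wells.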

cloned human NR1/NR2B ion channels, sequence (Q13224 27-1484, other chains not shown): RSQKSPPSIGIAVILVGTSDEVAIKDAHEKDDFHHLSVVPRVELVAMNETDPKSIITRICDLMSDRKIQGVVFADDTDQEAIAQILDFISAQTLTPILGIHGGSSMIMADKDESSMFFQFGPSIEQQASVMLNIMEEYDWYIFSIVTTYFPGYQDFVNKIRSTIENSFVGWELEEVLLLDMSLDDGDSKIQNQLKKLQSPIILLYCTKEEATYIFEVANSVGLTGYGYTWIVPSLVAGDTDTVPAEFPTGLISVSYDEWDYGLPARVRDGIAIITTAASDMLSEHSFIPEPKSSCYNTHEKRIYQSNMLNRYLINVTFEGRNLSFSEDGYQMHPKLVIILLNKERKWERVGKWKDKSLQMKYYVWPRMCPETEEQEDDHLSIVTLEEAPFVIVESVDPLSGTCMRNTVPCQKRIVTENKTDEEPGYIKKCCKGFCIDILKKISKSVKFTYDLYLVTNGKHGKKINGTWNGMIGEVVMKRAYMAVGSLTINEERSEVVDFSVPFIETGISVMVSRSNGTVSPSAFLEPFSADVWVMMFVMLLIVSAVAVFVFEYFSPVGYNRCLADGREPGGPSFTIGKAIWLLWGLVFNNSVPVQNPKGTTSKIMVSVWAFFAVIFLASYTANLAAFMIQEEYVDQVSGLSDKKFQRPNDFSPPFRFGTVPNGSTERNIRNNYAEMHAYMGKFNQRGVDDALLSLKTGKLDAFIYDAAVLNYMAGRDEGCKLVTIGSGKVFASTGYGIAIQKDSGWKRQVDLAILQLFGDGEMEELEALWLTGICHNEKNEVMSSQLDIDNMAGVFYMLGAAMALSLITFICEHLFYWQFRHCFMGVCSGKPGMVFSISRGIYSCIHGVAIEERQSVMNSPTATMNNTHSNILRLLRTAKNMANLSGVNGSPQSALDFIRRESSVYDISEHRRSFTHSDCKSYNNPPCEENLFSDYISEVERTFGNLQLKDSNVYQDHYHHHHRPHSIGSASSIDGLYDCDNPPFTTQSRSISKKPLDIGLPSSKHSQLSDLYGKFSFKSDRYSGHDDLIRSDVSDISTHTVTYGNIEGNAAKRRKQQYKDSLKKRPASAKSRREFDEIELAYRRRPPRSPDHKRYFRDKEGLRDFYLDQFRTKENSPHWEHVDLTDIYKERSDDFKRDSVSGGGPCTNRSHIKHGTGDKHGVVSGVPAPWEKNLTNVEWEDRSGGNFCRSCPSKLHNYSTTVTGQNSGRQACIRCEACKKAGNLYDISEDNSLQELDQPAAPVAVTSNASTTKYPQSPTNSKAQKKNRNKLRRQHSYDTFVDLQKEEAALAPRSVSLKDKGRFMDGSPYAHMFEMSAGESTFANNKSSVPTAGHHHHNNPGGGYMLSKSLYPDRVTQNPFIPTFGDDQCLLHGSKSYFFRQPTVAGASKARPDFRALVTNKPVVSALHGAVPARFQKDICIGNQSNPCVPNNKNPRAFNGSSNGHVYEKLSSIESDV

SMILES	pIC50
O=C(Cn1cc(Cl)c2ncc(-c3ccc(F)c(F)c3F)cc21)N1CC(F)C1 [Example 374, 2-[3-Chloro-6-(2,3,4-trifluorophenyl)pyrrolo[3,2-b]pyridin-1-yl]-1-(3-fluoroazetidin-1-yl)ethanone]	7.70
CN(C)C(=O)Cn1ccc2ncc(-c3cc(F)c(F)c(F)c3)cc21 [Example 375, N,N-Dimethyl-2-[6-(3,4,5-trifluorophenyl)pyrrolo[3,2-b]pyridin-1-yl]acetamide]	7.90
CN(C)C(=O)Cn1ccc2ncc(-c3cc(F)cc(F)c3)cc21 [Example 376, 2-[6-(3,5-Difluorophenyl)pyrrolo[3,2-b]pyridin-1-yl]-N,N-dimethyl-acetamide]	7.70
CN(C)C(=O)Cn1ccc2ncc(-c3cccc(C(F)F)c3)cc21 [Example 377, 2-[6-[3-(Difluoromethyl)phenyl]pyrrolo[3,2-b]pyridin-1-yl]-N,N-dimethyl-acetamide]	8.00
O=C(Cn1cc(Cl)c2ncc(-c3ccc(Cl)s3)cc21)N1CCC1 [Example 381, 1-(Azetidin-1-yl)-2-[3-chloro-6-(5-chloro-2-thienyl)pyrrolo[3,2-b]pyridin-1-yl]ethanone]	7.80
O=C(Cn1cc(F)c2ncc(-c3ccc(F)c(F)c3)cc21)N1CCC1 [Example 382, 1-(Azetidin-1-yl)-2-[6-(3,4-difluorophenyl)-3-fluoro-pyrrolo[3,2-b]pyridin-1-yl]ethanone]	7.80
O=C(Cn1cc(F)c2ncc(-c3cc(F)c(F)c(F)c3)cc21)N1CCC1 [Example 383, 1-(Azetidin-1-yl)-2-[3-fluoro-6-(3,4,5-trifluorophenyl)pyrrolo[3,2-b]pyridin-1-yl]ethanone]	7.80
O=C(Cn1cc(Cl)c2ncc(-c3ccc(F)cc3)cc21)C1CC1 [Example 384, 2-[3-Chloro-6-(4-fluorophenyl)pyrrolo[3,2-b]pyridin-1-yl]-1-cyclopropyl-ethanone]	7.70
CN(C)C(=O)Cn1cc(F)c2ncc(-c3cccs3)cc21 [Example 387, 2-[3-Fluoro-6-(2-thienyl)pyrrolo[3,2-b]pyridin-1-yl]-N,N-dimethyl-acetamide]	7.20
CCc1ccc(-c2cnc3ccn(CC(=O)N(C)C)c3c2)s1 [Example 388, 2-[6-(5-Ethyl-2-thienyl)pyrrolo[3,2-b]pyridin-1-yl]-N,N-dimethyl-acetamide trifluoroacetate salt]	6.10
Cc1ccc(-c2cnc3c(F)cn(CC(=O)N(C)C)c3c2)s1 [Example 390, 2-[3-Fluoro-6-(5-methyl-2-thienyl)pyrrolo[3,2-b]pyridin-1-yl]-N,N-dimethyl-acetamide]	6.50
CCc1ccc(-c2cnc3c(F)cn(CC(=O)N(C)C)c3c2)s1 [Example 393, 2-[6-(5-Ethyl-2-thienyl)-3-fluoro-pyrrolo[3,2-b]pyridin-1-yl]-N,N-dimethyl-acetamide]	6.90
O=C(Cn1cc(F)c2ncc(-c3cccs3)cc21)N1CC(F)C1 [Example 395, 1-(3-Fluoroazetidin-1-yl)-2-[3-fluoro-6-(2-thienyl)pyrrolo[3,2-b]pyridin-1-yl]ethanone trifluoroacetate salt]	7.30
CN(C)C(=O)Cn1cc(F)c2ncc(-c3cc(Cl)cs3)cc21 [Example 396, 2-[6-(4-Chloro-2-thienyl)-3-fluoro-pyrrolo[3,2-b]pyridin-1-yl]-N,N-dimethyl-acetamide]	6.30
CCc1ccc(-c2cnc3c(F)cn(CC(=O)N4CC(F)C4)c3c2)s1 [Example 398, 2-[6-(5-Ethyl-2-thienyl)-3-fluoro-pyrrolo[3,2-b]pyridin-1-yl]-1-(3-fluoroazetidin-1-yl)ethanone trifluoroacetate salt]	7.40
CN(C)C(=O)Cn1ccc2ncc(-c3cccs3)cc21 [Example 400, N,N-Dimethyl-2-[6-(2-thienyl)pyrrolo[3,2-b]pyridin-1-yl]acetamide]	6.30
CCc1ccc(-c2cnc3c(F)cn(CC(=O)N4CCC4)c3c2)s1 [Example 401, 1-(Azetidin-1-yl)-2-[6-(5-ethyl-2-thienyl)-3-fluoro-pyrrolo[3,2-b]pyridin-1-yl]ethanone]	6.20
Cc1ccc(-c2cnc3c(F)cn(CC(=O)N4CC(F)C4)c3c2)s1 [Example 402, 1-(3-Fluoroazetidin-1-yl)-2-[3-fluoro-6-(5-methyl-2-thienyl)pyrrolo[3,2-b]pyridin-1-yl]ethanone trifluoroacetate salt]	6.60
CCc1ccc(-c2cnc3c(Cl)cn(CC(=O)N4CCC4)c3c2)s1 [Example 408, 1-(Azetidin-1-yl)-2-[3-chloro-6-(5-ethyl-2-thienyl)pyrrolo[3,2-b]pyridin-1-yl]ethanone]	7.40
Cc1ccc(-c2cnc3c(Cl)cn(CC(=O)N4CCC4)c3c2)s1 [Example 410, 1-(Azetidin-1-yl)-2-[3-chloro-6-(5-methyl-2-thienyl)pyrrolo[3,2-b]pyridin-1-yl]ethanone]	6.50
CN(CC(F)(F)F)C(=O)Cn1ccc2ncc(-c3ccc(F)cc3)cc21 [Example 411, 2-[6-(4-Fluorophenyl)pyrrolo[3,2-b]pyridin-1-yl]-N-methyl-N-(2,2,2-trifluoroethyl)acetamide]	7.60
Cc1ccc(-c2cnc3c(Cl)cn(CC(=O)N4CC(F)C4)c3c2)s1 [Example 412, 2-[3-Chloro-6-(5-methyl-2-thienyl)pyrrolo[3,2-b]pyridin-1-yl]-1-(3-fluoroazetidin-1-yl)ethanone]	5.10
O=C(Cn1cc(Cl)c2ncc(-c3ccc(Cl)s3)cc21)N1CC(F)C1 [Example 413, 2-[3-Chloro-6-(5-chloro-2-thienyl)pyrrolo[3,2-b]pyridin-1-yl]-1-(3-fluoroazetidin-1-yl)ethanone]	7.30
CN(C)C(=O)Cn1cc(Cl)c2ncc(-c3cc(Cl)cs3)cc21 [Example 414, 2-[3-Chloro-6-(4-chloro-2-thienyl)pyrrolo[3,2-b]pyridin-1-yl]-N,N-dimethyl-acetamide]	7.40
Cc1cc(-c2cnc3ccn(CC(=O)N(C)CC(F)(F)F)c3c2)ccc1F [Example 415, 2-[6-(4-Fluoro-3-methyl-phenyl)pyrrolo[3,2-b]pyridin-1-yl]-N-methyl-N-(2,2,2-trifluoroethyl)acetamide]	7.20
Cc1csc(-c2cnc3c(Cl)cn(CC(=O)N4CC(F)C4)c3c2)c1 [Example 416, 2-[3-Chloro-6-(4-methyl-2-thienyl)pyrrolo[3,2-b]pyridin-1-yl]-1-(3-fluoroazetidin-1-yl)ethanone]	5.60
O=C(Cn1cc(Cl)c2ncc(-c3cccs3)cc21)N1CC(F)C1 [Example 417, 2-[3-Chloro-6-(2-thienyl)pyrrolo[3,2-b]pyridin-1-yl]-1-(3-fluoroazetidin-1-yl)ethanone]	7.20

Now from value to compound:

pIC50	SMILES
8.00	Cc1ccc(-c2cnc3ccn(CC(=O)N4CCC4)c3c2)s1 [Example 380, 1-(Azetidin-1-yl)-2-[6-(5-methyl-2-thienyl)pyrrolo[3,2-b]pyridin-1-yl]ethanone]
7.70	O=C(Cn1ccc2ncc(-c3ccsc3)cc21)N1CCC1 [Example 385, 1-(Azetidin-1-yl)-2-[6-(3-thienyl)pyrrolo[3,2-b]pyridin-1-yl]ethanone trifluoroacetate salt]
6.80	O=C(Cn1cc(F)c2ncc(-c3cccs3)cc21)N1CCC1 [Example 389, 1-(Azetidin-1-yl)-2-[3-fluoro-6-(2-thienyl)pyrrolo[3,2-b]pyridin-1-yl]ethanone trifluoroacetate salt]
7.30	CN(C)C(=O)Cn1ccc2ncc(-c3cc(Cl)cs3)cc21 [Example 391, 2-[6-(4-Chloro-2-thienyl)pyrrolo[3,2-b]pyridin-1-yl]-N,N-dimethyl-acetamide trifluoroacetate salt]
7.20	CCc1ccc(-c2cnc3ccn(CC(=O)N4CCC4)c3c2)s1 [Example 392, 1-(Azetidin-1-yl)-2-[6-(5-ethyl-2-thienyl)pyrrolo[3,2-b]pyridin-1-yl]ethanone trifluoroacetate salt]
6.80	O=C(Cn1ccc2ncc(-c3cc(Cl)cs3)cc21)N1CCC1 [Example 394, 1-(Azetidin-1-yl)-2-[6-(4-chloro-2-thienyl)pyrrolo[3,2-b]pyridin-1-yl]ethanone trifluoroacetate salt]
7.30	O=C(Cn1cc(F)c2ncc(-c3cc(Cl)cs3)cc21)N1CCC1 [Example 397, 1-(Azetidin-1-yl)-2-[6-(4-chloro-2-thienyl)-3-fluoro-pyrrolo[3,2-b]pyridin-1-yl]ethanone trifluoroacetate salt]
6.80	O=C(Cn1ccc2ncc(-c3cccs3)cc21)N1CCC1 [Example 399, 1-(Azetidin-1-yl)-2-[6-(2-thienyl)pyrrolo[3,2-b]pyridin-1-yl]ethanone]
7.00	O=C(Cn1ccc2ncc(-c3sccc3Cl)cc21)N1CCC1 [Example 403, 1-(Azetidin-1-yl)-2-[6-(3-chloro-2-thienyl)pyrrolo[3,2-b]pyridin-1-yl]ethanone]
7.50	Cc1ncc(-c2cnc3ccn(CC(=O)N4CCC4)c3c2)s1 [Example 404, 1-(Azetidin-1-yl)-2-[6-(2-methylthiazol-5-yl)pyrrolo[3,2-b]pyridin-1-yl]ethanone]
5.00	O=C(Cn1ccc2ncc(-c3cncs3)cc21)N1CCC1 [Example 405, 1-(Azetidin-1-yl)-2-(6-thiazol-5-ylpyrrolo[3,2-b]pyridin-1-yl)ethanone]
5.20	Cc1csc(-c2cnc3c(Cl)cn(CC(=O)N4CCC4)c3c2)c1 [Example 407, 1-(Azetidin-1-yl)-2-[3-chloro-6-(4-methyl-2-thienyl)pyrrolo[3,2-b]pyridin-1-yl]ethanone]
6.70	O=C(Cn1cc(Cl)c2ncc(-c3cccs3)cc21)N1CCC1 [Example 409, 1-(Azetidin-1-yl)-2-[3-chloro-6-(2-thienyl)pyrrolo[3,2-b]pyridin-1-yl]ethanone]
6.30	O=C(Cn1cc(Cl)c2ncc(-c3cc(Cl)cs3)cc21)N1CC(F)C1 [Example 418, 2-[3-Chloro-6-(4-chloro-2-thienyl)pyrrolo[3,2-b]pyridin-1-yl]-1-(3-fluoroazetidin-1-yl)ethanone]
